Results published in PubChem BioAssay AID256 (DTP/NCI, 2004).
Several values for one entry are separate records, joined by “and”; a condition that tells them apart may be missing. Equal values may be shown once. Toxic doses and inconclusive results are not listed. Rule for the calls: active = survival T/C of 150% or more; inactive = T/C below 125% in these data.

Tested on: CD2F1 mice, L1210 leukemia ip, survival T/C
Assay: NCI In Vivo Anticancer Drug Screen. Data for tumor model L1210 Leukemia (intraperitoneal) in CD2F1 (CDF1) mice
Details: higher = longer survival
How it was run: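 Ratio T/C, where T is the treated-group value and C the vehicle-dosed control value, from mice implanted with a transplantable tumor.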

[1] = endpoint: mean survival time, dose: 50.0 mg/kg/injection, schedule: Q01DX009 (ip), vehicle: saline with Tween-80
[2] = endpoint: mean survival time, dose: 100.0 mg/kg/injection, schedule: Q01DX009 (ip), vehicle: saline with Tween-80
[3] = endpoint: mean survival time, dose: 200.0 mg/kg/injection, schedule: Q01DX009 (ip), vehicle: saline with Tween-80
[4] = endpoint: mean survival time, dose: 75.0 mg/kg/injection, schedule: Q01DX001 (ip), vehicle: saline
[5] = endpoint: mean survival time, dose: 150.0 mg/kg/injection, schedule: Q01DX001 (ip), vehicle: saline
[6] = endpoint: mean survival time, dose: 300.0 mg/kg/injection, schedule: Q01DX001 (ip), vehicle: saline
[7] = endpoint: mean survival time, dose: 100.0 mg/kg/injection, schedule: Q04DX003 (ip), vehicle: saline with Tween-80
[8] = endpoint: mean survival time, dose: 400.0 mg/kg/injection, schedule: Q01DX009 (ip), vehicle: saline with Tween-80
[9] = endpoint: mean survival time, dose: 200.0 mg/kg/injection, schedule: Q04DX003 (ip), vehicle: saline with Tween-80
[10] = endpoint: mean survival time, dose: 400.0 mg/kg/injection, schedule: Q04DX003 (ip), vehicle: saline with Tween-80
[11] = endpoint: mean survival time, dose: 50.0 mg/kg/injection, schedule: Q04DX003 (ip), vehicle: saline
[12] = endpoint: mean survival time, dose: 100.0 mg/kg/injection, schedule: Q04DX003 (ip), vehicle: saline
[13] = endpoint: mean survival time, dose: 200.0 mg/kg/injection, schedule: Q04DX003 (ip), vehicle: saline

Measured: T/C

O=C(CNC(=O)Nc1cccc([N+](=O)[O-])c1)N/N=C/c1ccc(F)cc1
inactive: [1] 89 % of control | [2] 93 % of control | [3] 101 % of control

CC(=O)N(CCCCCCN(N=O)C(C)=O)N=O
inactive: [4] 110 % of control | [5] 122 % of control | [6] 116 % of control

NC(N)=N/N=C(\c1ccc(C(F)(F)F)cc1)c1ccc(Cl)c(Cl)c1
inactive: [4] 91 % of control

O=c1ccn2cnc3c(ncn3C3OC(CO)C(O)C3O)c2n1 (stereo not drawn)
inactive: endpoint: median survival time, dose: 12.5 mg/kg/injection, schedule: Q01DX005 (ip), vehicle: saline with Tween-80 105 % of control | endpoint: median survival time, dose: 25.0 mg/kg/injection, schedule: Q01DX005 (ip), vehicle: saline with Tween-80 98 % of control | endpoint: median survival time, dose: 50.0 mg/kg/injection, schedule: Q01DX005 (ip), vehicle: saline with Tween-80 98 % of control | endpoint: median survival time, dose: 100.0 mg/kg/injection, schedule: Q01DX005 (ip), vehicle: saline with Tween-80 103 % of control | endpoint: median survival time, dose: 200.0 mg/kg/injection, schedule: Q01DX005 (ip), vehicle: saline with Tween-80 103 % of control

O=[N+]([O-])c1ccc(C[P+](c2ccccc2)(c2ccccc2)c2ccccc2)cc1
inactive: endpoint: mean survival time, dose: 6.25 mg/kg/injection, schedule: Q04DX002 (ip), vehicle: saline with Tween-80 86 % of control | endpoint: mean survival time, dose: 12.5 mg/kg/injection, schedule: Q04DX002 (ip), vehicle: saline with Tween-80 108 % of control | endpoint: mean survival time, dose: 25.0 mg/kg/injection, schedule: Q04DX002 (ip), vehicle: saline with Tween-80 94 % of control

COC(=O)C(C#N)=C(C)C
inactive: endpoint: mean survival time, dose: 10.0 mg/kg/injection, schedule: Q01DX009 (ip), vehicle: saline with Tween-80 110 % of control | endpoint: mean survival time, dose: 10.0 mg/kg/injection, schedule: Q04DX003 (ip), vehicle: saline 96 % of control | endpoint: mean survival time, dose: 20.0 mg/kg/injection, schedule: Q01DX009 (ip), vehicle: saline with Tween-80 101 % of control | endpoint: mean survival time, dose: 20.0 mg/kg/injection, schedule: Q04DX003 (ip), vehicle: saline 96 % of control | endpoint: mean survival time, dose: 40.0 mg/kg/injection, schedule: Q01DX009 (ip), vehicle: saline with Tween-80 104 % of control | endpoint: mean survival time, dose: 40.0 mg/kg/injection, schedule: Q04DX003 (ip), vehicle: saline 96 % of control

S=C(S)NN1CCCC1
inactive: endpoint: mean survival time, dose: 25.0 mg/kg/injection, schedule: Q01DX009 (ip), vehicle: saline with Tween-80 101 % of control | [1] 100 % of control | [7] 92 % of control

Cc1ccc(CS(=O)(=O)C(Cl)(Cl)c2ccc(C)cc2)cc1
inactive: endpoint: mean survival time, dose: 100.0 mg/kg/injection, schedule: Q04DX003 (ip), vehicle: Klucel (hydroxypropylcellulose) (HPC) 94 % of control | endpoint: mean survival time, dose: 200.0 mg/kg/injection, schedule: Q04DX003 (ip), vehicle: Klucel (hydroxypropylcellulose) (HPC) 100 % of control | endpoint: mean survival time, dose: 400.0 mg/kg/injection, schedule: Q04DX003 (ip), vehicle: Klucel (hydroxypropylcellulose) (HPC) 94 % of control

O=C1c2ccccc2C(=O)c2cc(S(=O)(=O)O)ccc21
inactive: endpoint: mean survival time, dose: 100.0 mg/kg/injection, schedule: Q01DX001 (ip), vehicle: Klucel (hydroxypropylcellulose) (HPC) 104 % of control | [2] 98 % of control | endpoint: mean survival time, dose: 200.0 mg/kg/injection, schedule: Q01DX001 (ip), vehicle: Klucel (hydroxypropylcellulose) (HPC) 96 % of control | [3] 90 % of control | endpoint: mean survival time, dose: 400.0 mg/kg/injection, schedule: Q01DX001 (ip), vehicle: Klucel (hydroxypropylcellulose) (HPC) 104 % of control | [8] 90 % of control

Cc1nc(C(Cl)C2OC(CO)C(O)C2O)cc(=O)[nH]1 (stereo not drawn)
inactive: endpoint: median survival time, dose: 18.25 mg/kg/injection, schedule: Q01DX005 (ip), vehicle: saline 118 % of control | endpoint: median survival time, dose: 36.5 mg/kg/injection, schedule: Q01DX005 (ip), vehicle: saline 100 % of control | endpoint: median survival time, dose: 73.0 mg/kg/injection, schedule: Q01DX005 (ip), vehicle: saline 102 % of control | endpoint: median survival time, dose: 146.0 mg/kg/injection, schedule: Q01DX005 (ip), vehicle: saline 100 % of control

CC(=O)OC(OC(C)=O)c1ccc([N+](=O)[O-])cc1
inactive: [2] 103 % of control | [7] 105 % of control | [3] 97 % of control | [9] 100 % of control | [8] 97 % of control | [10] 92 % of control

[Cl][Pt+2][Cl].[NH-]C(C(=O)O)C([NH-])C(=O)O (stereo not drawn)
inactive: [11] 100 % of control | [12] 106 % of control | [13] 104 % of control

O=C1c2ccccc2C(=O)c2c(Cl)cc(Cl)cc21
inactive: [4] 103 % of control | [5] 111 % of control | [6] 102 % of control

CCCc1nc2[nH]c(N)nc(=S)c2[nH]1
inactive: endpoint: mean survival time, dose: 12.5 mg/kg/injection, schedule: Q01DX005 (ip), vehicle: other 100 % of control | endpoint: mean survival time, dose: 25.0 mg/kg/injection, schedule: Q01DX005 (ip), vehicle: other 108 % of control

COc1cc(C2=NCCc3cc4c(cc32)OCO4)cc(OC)c1OC
inactive: endpoint: median survival time, dose: 6.25 mg/kg/injection, schedule: Q01DX009 (ip), vehicle: saline + alcohol 106 % of control | endpoint: median survival time, dose: 12.5 mg/kg/injection, schedule: Q01DX009 (ip), vehicle: saline + alcohol 105 % of control | endpoint: median survival time, dose: 12.5 mg/kg/injection, schedule: Q01DX009 (ip), vehicle: saline 97 % of control and 102 % of control | endpoint: median survival time, dose: 25.0 mg/kg/injection, schedule: Q01DX009 (ip), vehicle: saline + alcohol 107 % of control | endpoint: median survival time, dose: 25.0 mg/kg/injection, schedule: Q01DX009 (ip), vehicle: saline 93 % of control and 104 % of control | endpoint: median survival time, dose: 50.0 mg/kg/injection, schedule: Q01DX009 (ip), vehicle: saline + alcohol 106 % of control | endpoint: median survival time, dose: 50.0 mg/kg/injection, schedule: Q01DX009 (ip), vehicle: saline 105 % of control | endpoint: median survival time, dose: 100.0 mg/kg/injection, schedule: Q01DX009 (ip), vehicle: saline + alcohol 109 % of control | endpoint: median survival time, dose: 100.0 mg/kg/injection, schedule: Q01DX009 (ip), vehicle: saline 105 % of control

O=[N+]([O-])c1ccc(Cl)c(P(=O)(O)c2cc([N+](=O)[O-])ccc2Cl)c1
inactive: [11] 100 % of control | [12] 101 % of control | [13] 100 % of control

CSc1ccccc1C(C)(C)C(=O)O
inactive: [7] 105 % of control | [9] 105 % of control | [10] 96 % of control

C=C1C(O)C2(O)OCC34C(CC5C(C)=CC(=O)C(O)C5(C)C23)OC(=O)C(OC(=O)C(C)(O)CC)C14 (stereo not drawn)
inactive: endpoint: mean survival time, dose: 0.25 mg/kg/injection, schedule: Q01DX009 (ip), vehicle: saline + alcohol 98 % of control | endpoint: mean survival time, dose: 0.5 mg/kg/injection, schedule: Q01DX009 (ip), vehicle: saline + alcohol 100 % of control | endpoint: mean survival time, dose: 1.0 mg/kg/injection, schedule: Q01DX009 (ip), vehicle: saline + alcohol 102 % of control | endpoint: mean survival time, dose: 2.0 mg/kg/injection, schedule: Q01DX009 (ip), vehicle: saline + alcohol 90 % of control

Nc1ncc(C(=O)c2ccccc2)cc1[N+](=O)[O-]
inactive: [7] 96 % of control | [9] 96 % of control

CCOC(=O)c1ccc(N(CCO)CCO)cc1
inactive: endpoint: mean survival time, dose: 75.0 mg/kg/injection, schedule: Q01DX001 (ip), vehicle: other 94 % of control | endpoint: mean survival time, dose: 150.0 mg/kg/injection, schedule: Q01DX001 (ip), vehicle: other 97 % of control | endpoint: mean survival time, dose: 300.0 mg/kg/injection, schedule: Q01DX001 (ip), vehicle: other 102 % of control

Cc1ccc(S(=O)(=O)OCC(O)C(O)C(O)C(O)COS(=O)(=O)c2ccc(C)cc2)cc1 (stereo not drawn)
inactive: endpoint: mean survival time, dose: 50.0 mg/kg/injection, schedule: Q01DX001 (ip), vehicle: saline with Tween-80 96 % of control | endpoint: mean survival time, dose: 100.0 mg/kg/injection, schedule: Q01DX001 (ip), vehicle: saline with Tween-80 96 % of control | endpoint: mean survival time, dose: 200.0 mg/kg/injection, schedule: Q01DX001 (ip), vehicle: saline with Tween-80 96 % of control
